Laboratory results: ChEMBL document CHEMBL1137105, “New N-pyridinyl(methyl)-indolalkanamides acting as topical inflammation inhibitors” (2004)
The source made the active and inactive calls. The calls are words filed in the database; no cut-off is given here.

Key:
Mus musculus [1] = assay: Percent inhibition of acute TPA-induced ear swelling in mice upon topical application at 2x 100 ug; format: functional
Mus musculus [2] = assay: inhibition of acute TPA-induced ear swelling in mice on oral administration of 0.1 nmol/kg; format: functional
Mus musculus [3] = assay: inhibition of acute TPA-induced ear swelling in mice on oral administration of 0.1 nmol/kg; not active; format: functional, organism-based
[4] = Inhibitory dose was determined; format: functional; details: read-out: ID50 (the source's name)
Mus musculus [5] = assay: inhibition of acute TPA-induced ear swelling in mice upon topical application of 2x 100 ug; format: functional

In the case of `Cc1cc(C)nc(NC(=O)CCc2cn(Cc3ccc(Cl)cc3)c3ccc(Cl)cc23)c1`, the Inhibition (Mus musculus [1]) is reported as 89% and the inhibition in vivo at 0.0001 µmol/kg (Mus musculus [2]) is reported as 83%.

For `Cc1cc(C)nc(NC(=O)/C=C/c2cn(Cc3ccc(F)cc3)c3ccccc23)c1`, the Inhibition (Mus musculus [1]) was 66% and the inhibition in vivo at 0.0001 µmol/kg (Mus musculus [2]) was 80%.

For `O=C(CCc1cn(Cc2ccc(Cl)cc2)c2ccc(Cl)cc12)NCc1cccnc1`, the Inhibition (Mus musculus [1]) was 94% and the inhibition in vivo at 0.0001 µmol/kg (Mus musculus [2]) was 84%.

Work on `C[C@@H]1C[C@H]2[C@@H]3CCC4=CC(=O)C=C[C@]4(C)[C@@]3(F)[C@@H](O)C[C@]2(C)[C@@]1(O)C(=O)CO` [DEXAMETHASONE] yielded an Inhibition (Mus musculus [1]) of 96% and an inhibition in vivo at 0.0001 µmol/kg (Mus musculus [2]) of 82%.

`Cc1cc(C)nc(NC(=O)CCc2cn(Cc3ccc(Cl)cc3)c3ccccc23)c1` gave an inhibition in vivo at 0.0001 µmol/kg (Mus musculus [2]) of 64%.

Molecule `O=C(CCc1cn(Cc2ccc(Cl)cc2)c2ccc(Cl)cc12)Nc1ccncc1` has an inhibition in vivo at 0.0001 µmol/kg (Mus musculus [2]) of 64%.

`Cc1cc(C)nc(NC(=O)CCc2cn(Cc3ccccc3)c3ccccc23)c1` showed an inhibition in vivo at 0.0001 µmol/kg (Mus musculus [2]) of 61%.

With `CC(C)Cc1ccc(C(C)C(=O)O)cc1` (configuration not stated) [IBUPROFEN] the Inhibition (Mus musculus [1]) was 59% and the inhibition in vivo at 0.0001 µmol/kg (Mus musculus [2]) was 35%.

For `Cc1cc(C)nc(NC(=O)CCc2c[nH]c3ccccc23)c1`, the Inhibition (Mus musculus [1]) was 66% and the inhibition in vivo at 0.0001 µmol/kg (Mus musculus [2]) was 72%.

With `O=C(CCc1c[nH]c2ccccc12)NCc1cccnc1` the inhibition (Mus musculus [3]) was “inactive”.

In the case of `O=C(CCc1cn(Cc2ccccc2)c2ccccc12)NCc1cccnc1`, the inhibition in vivo at 0.0001 µmol/kg (Mus musculus [2]) is reported as 70%.

Molecule `O=C(CCn1ccc2ccccc21)Nc1ccncc1` has an inhibition in vivo at 0.0001 µmol/kg (Mus musculus [2]) of 77%.

Work on `O=C(CCc1cn(Cc2ccc(Cl)cc2)c2ccccc12)Nc1ccncc1` yielded an inhibition in vivo at 0.0001 µmol/kg (Mus musculus [2]) of 72%.

`O=C(CCc1cn(Cc2ccc(Cl)cc2)c2ccccc12)NCc1cccnc1` showed an ED50 [4] of 24 µmol/kg, an Inhibition (Mus musculus [1]) of 71% and an inhibition in vivo at 0.0001 µmol/kg (Mus musculus [2]) of 92%.

In the case of `O=C(CCc1cn(Cc2ccccc2)c2ccccc12)Nc1ccncc1`, the Inhibition (Mus musculus [1]) is reported as 90% and the inhibition in vivo at 0.0001 µmol/kg (Mus musculus [2]) is reported as 84%.

Work on `O=C(CCc1c[nH]c2ccccc12)Nc1ccncc1` yielded an Inhibition (Mus musculus [5]) of 38% and an inhibition in vivo at 0.0001 µmol/kg (Mus musculus [2]) of 77%.

For `O=C(CCc1cn(CCN2CCOCC2)c2ccccc12)Nc1ccncc1`, the inhibition in vivo at 0.0001 µmol/kg (Mus musculus [2]) was 63%.
